Consider eight compounds from BindingDB's records for doi:10.1021/jm030115o (Johnson and Johnson Pharmaceutical Research and Development, 2003).

The test can be described thus: Inhibition of Glycogen synthase kinase-3beta (GSK3-beta).

The IC50 is the concentration at which inhibition is half-maximal. The low end stands for greater potency, the high end for weaker potency. Consider `O=C1NC(=O)C2=C1c1cn(c3ncccc13)CCOCCOCCOCCOCCOCCn1cc2c2cccnc21` [17,20,23,26,29-pentaoxa-4,12,14,32,34-pentaazahexacyclo[30.6.1.17,14.02,6.08,13.033,38]tetraconta-1(39),2(6),7(40),8,10,12,33,35,37-nonaene-3,5-dione], for which inhibition was half-maximal at 0.403 µM (IC50).

With `O=C1NC(=O)C2=C1c1cn(c3ccccc13)CCOCCOCCOCCOCCOCCn1cc2c2ccccc21` [17,20,23,26,29-pentaoxa-4,14,32-triazahexacyclo[30.6.1.17,14.02,6.08,13.033,38]tetraconta-1(39),2(6),7(40),8,10,12,33,35,37-nonaene-3,5-dione], the IC50 came to 0.051 µM. Compound `O=C1NC(=O)C2=C1c1cn(c3ncccc13)CCOCCOCCOCCOCCn1cc2c2cccnc21` [17,20,23,26-tetraoxa-4,12,14,29,31-pentaazahexacyclo[27.6.1.17,14.02,6.08,13.030,35]heptatriaconta-1(36),2(6),7(37),8,10,12,30,32,34-nonaene-3,5-dione] registered an IC50 of 0.048 µM.

As for `O=C1NC(=O)C2=C1c1cn(c3ccccc13)CCOCCOCCOCCOCCn1cc2c2ccccc21` [17,20,23,26-tetraoxa-4,14,29-triazahexacyclo[27.6.1.17,14.02,6.08,13.030,35]heptatriaconta-1(36),2(6),7(37),8,10,12,30,32,34-nonaene-3,5-dione], the IC50 is 0.026 µM.

In the case of `O=C1NC(=O)C2=C1c1cn(c3ncccc13)CCOCCOCCOCCn1cc2c2cccnc21` [17,20,23-trioxa-4,12,14,26,28-pentaazahexacyclo[24.6.1.17,14.02,6.08,13.027,32]tetratriaconta-1(33),2(6),7(34),8,10,12,27,29,31-nonaene-3,5-dione], the concentration for half-maximal inhibition (IC50) is 0.034 µM. For `O=C1NC(=O)C2=C1c1cn(c3ncccc13)CCOCCOCCn1cc2c2cccnc21` [17,20-dioxa-4,12,14,23,25-pentaazahexacyclo[21.6.1.17,14.02,6.08,13.024,29]hentriaconta-1(30),2(6),7(31),8,10,12,24,26,28-nonaene-3,5-dione], the IC50 worked out at 0.62 µM. This IC50 is about 18-fold higher than that of the compound before. Next, `O=C1NC(=O)C2=C1c1cn(c3ccccc13)CCOCCOCCn1cc2c2cccnc21` [17,20-dioxa-4,12,14,23-tetraazahexacyclo[21.6.1.17,14.02,6.08,13.024,29]hentriaconta-1(30),2(6),7(31),8,10,12,24,26,28-nonaene-3,5-dione]: 0.138 µM; `O=C1NC(=O)C2=C1c1cn(c3ccccc13)CCOCCOCCn1cc2c2ccccc21` [17,20-dioxa-4,14,23-triazahexacyclo[21.6.1.17,14.02,6.08,13.024,29]hentriaconta-1(30),2(6),7(31),8,10,12,24,26,28-nonaene-3,5-dione]: 0.136 µM.
